Assay results as given in the NIST ThermoML archive (doi:10.1016/j.jct.2003.11.012).

Columns and labels:
[1] = molar heat capacity at saturation pressure
[2] = for vapor or sublimation pressure: Liquid; for Triple point temperature: Adiabatic calorimetry
[3] = Molar enthalpy of transition or fusion

C1CCC(SC2CCCCC2)CC1 [dicyclohexyl sulfide]
[1]
Conditions | molar heat capacity [J/K/mol]
5 K, Crystal 3 | 0.65
7.076 K, Crystal 3, Vacuum adiabatic calorimetry | 1.83
8.093 K, Crystal 3, Vacuum adiabatic calorimetry | 2.68
9.092 K, Crystal 3, Vacuum adiabatic calorimetry | 3.7
10 K, Crystal 3 | 4.79
10.12 K, Crystal 3, Vacuum adiabatic calorimetry | 4.94
11.22 K, Crystal 3, Vacuum adiabatic calorimetry | 6.32
12.48 K, Crystal 3, Vacuum adiabatic calorimetry | 8.05
13.88 K, Crystal 3, Vacuum adiabatic calorimetry | 10.26
15 K, Crystal 3 | 12.08
15.44 K, Crystal 3, Vacuum adiabatic calorimetry | 12.81
17.17 K, Crystal 3, Vacuum adiabatic calorimetry | 15.8
19.09 K, Crystal 3, Vacuum adiabatic calorimetry | 19.16
20 K, Crystal 3 | 20.77
21.2 K, Crystal 3, Vacuum adiabatic calorimetry | 22.91
23.53 K, Crystal 3, Vacuum adiabatic calorimetry | 27.09
25 K, Crystal 3 | 29.63
26.12 K, Crystal 3, Vacuum adiabatic calorimetry | 31.54
29 K, Crystal 3, Vacuum adiabatic calorimetry | 36.28
30 K, Crystal 3 | 37.98
32.2 K, Crystal 3, Vacuum adiabatic calorimetry | 41.46
33.51 K, Crystal 3, Vacuum adiabatic calorimetry | 43.05
35 K, Crystal 3 | 45.26
35.74 K, Crystal 3, Vacuum adiabatic calorimetry | 46.49
36 K, Crystal 3 | 46.79
37 K, Crystal 3 | 48.49
37.54 K, Crystal 3, Vacuum adiabatic calorimetry | 49.5
38 K, Crystal 3 | 50.1
39 K, Crystal 3 | 53.43
39.08 K, Crystal 3, Vacuum adiabatic calorimetry | 53.4
40 K, Crystal 3 | 59.33
40.2 K, Crystal 3 | 61.57
40.4 K, Crystal 3 | 65.04
40.6 K, Crystal 3 | 70.56
40.8 K, Crystal 3 | 79.24
41 K, Crystal 3 | 92.56
41.1 K, Crystal 3 | 101.56
41.2 K, Crystal 3 | 112.49
41.3 K, Crystal 3 | 125.67
41.35 K, Crystal 2 | 132.62
41.35 K, Crystal 3 | 132.62
41.4 K, Crystal 2 | 124.85
41.5 K, Crystal 2 | 113.3
41.6 K, Crystal 2 | 103.72
41.7 K, Crystal 2 | 95.82
41.8 K, Crystal 2 | 89.37
41.9 K, Crystal 2 | 84.14
42 K, Crystal 2 | 79.94
42.1 K, Crystal 2 | 76.58
42.2 K, Crystal 2 | 73.92
42.3 K, Crystal 2 | 71.85
42.4 K, Crystal 2 | 70.24
42.5 K, Crystal 2 | 68.99
42.6 K, Crystal 2 | 68.04
42.7 K, Crystal 2 | 67.3
42.8 K, Crystal 2 | 66.72
42.9 K, Crystal 2 | 66.27
43 K, Crystal 2 | 65.89
44 K, Crystal 2 | 63.21
44.5 K, Crystal 2, Vacuum adiabatic calorimetry | 62.94
45 K, Crystal 2 | 62.78
45.83 K, Crystal 2, Vacuum adiabatic calorimetry | 62.98
46 K, Crystal 2 | 63.03
48 K, Crystal 2 | 64
48.81 K, Crystal 2, Vacuum adiabatic calorimetry | 64.58
50 K, Crystal 2 | 65.53
53.62 K, Crystal 2, Vacuum adiabatic calorimetry | 68.84
54.45 K, Crystal 2, Vacuum adiabatic calorimetry | 69.65
55 K, Crystal 2 | 70.15
58.57 K, Crystal 2, Vacuum adiabatic calorimetry | 73.26
60 K, Crystal 2 | 74.51
64.06 K, Crystal 2, Vacuum adiabatic calorimetry | 78.07
70 K, Crystal 2 | 83.42
70.24 K, Crystal 2, Vacuum adiabatic calorimetry | 83.65
77.05 K, Crystal 2, Vacuum adiabatic calorimetry | 89.46
80 K, Crystal 2 | 91.91
82.72 K, Crystal 2, Vacuum adiabatic calorimetry | 94.2
84.66 K, Crystal 2, Vacuum adiabatic calorimetry | 95.88
89.87 K, Crystal 2, Vacuum adiabatic calorimetry | 100.11
90 K, Crystal 2 | 100.24
93.06 K, Crystal 2, Vacuum adiabatic calorimetry | 102.76
98.25 K, Crystal 2, Vacuum adiabatic calorimetry | 106.88
100 K, Crystal 2 | 108.32
101.97 K, Crystal 2, Vacuum adiabatic calorimetry | 109.92
107.36 K, Crystal 2, Vacuum adiabatic calorimetry | 114.09
117.01 K, Crystal 2, Vacuum adiabatic calorimetry | 121.51
120 K, Crystal 2 | 123.79
126.84 K, Crystal 2, Vacuum adiabatic calorimetry | 128.96
136.8 K, Crystal 2, Vacuum adiabatic calorimetry | 136.33
140 K, Crystal 2 | 138.69
146.83 K, Crystal 2, Vacuum adiabatic calorimetry | 143.7
156.79 K, Crystal 2, Vacuum adiabatic calorimetry | 151.02
160 K, Crystal 2 | 153.38
167.83 K, Crystal 2, Vacuum adiabatic calorimetry | 159.16
179.9 K, Crystal 2, Vacuum adiabatic calorimetry | 168.19
180 K, Crystal 2 | 168.28
192 K, Crystal 2, Vacuum adiabatic calorimetry | 177.65
200 K, Crystal 2 | 184.16
204.1 K, Crystal 2, Vacuum adiabatic calorimetry | 187.6
212.64 K, Crystal 2, Vacuum adiabatic calorimetry | 194.77
216.18 K, Crystal 2, Vacuum adiabatic calorimetry | 197.93
220 K, Crystal 2 | 201.6
223.24 K, Crystal 2, Vacuum adiabatic calorimetry | 204.46
227.23 K, Crystal 2, Vacuum adiabatic calorimetry | 208.11
229.69 K, Crystal 2, Vacuum adiabatic calorimetry | 210.53
233.56 K, Crystal 2, Vacuum adiabatic calorimetry | 214.23
239.46 K, Crystal 2, Vacuum adiabatic calorimetry | 220.49
240 K, Crystal 2 | 221.21
243.62 K, Crystal 2, Vacuum adiabatic calorimetry | 224.96
245.76 K, Crystal 2, Vacuum adiabatic calorimetry | 227.13
249.49 K, Crystal 2, Vacuum adiabatic calorimetry | 232.29
250 K, Crystal 2 | 231.72
252.11 K, Crystal 2, Vacuum adiabatic calorimetry | 235.33
255.1 K, Crystal 2, Vacuum adiabatic calorimetry | 241.32
255.37 K, Crystal 2, Vacuum adiabatic calorimetry | 242.85
256.11 K, Crystal 2, Vacuum adiabatic calorimetry | 244.36
258.04 K, Crystal 2, Vacuum adiabatic calorimetry | 251.78
258.75 K, Crystal 2, Vacuum adiabatic calorimetry | 257.57
260 K, Crystal 2 | 264.46
264.7 K, Crystal 1 | 315.22
264.7 K, Crystal 2 | 316.1
267.11 K, Crystal 1, Vacuum adiabatic calorimetry | 316.81
270 K, Crystal 1 | 318.74
270.5 K, Crystal 1, Vacuum adiabatic calorimetry | 319.58
270.99 K, Crystal 1, Vacuum adiabatic calorimetry | 319.82
272.57 K, Crystal 1, Vacuum adiabatic calorimetry | 320.97
274.72 K, Crystal 1, Vacuum adiabatic calorimetry | 322.6
275.18 K, Crystal 1, Vacuum adiabatic calorimetry | 322.61
276.68 K, Crystal 1, Vacuum adiabatic calorimetry | 324.34
277.72 K, Crystal 1, Vacuum adiabatic calorimetry | 325.42
278.97 K, Crystal 1, Vacuum adiabatic calorimetry | 327.22
280 K, Crystal 1 | 325.48
284.2 K, Crystal 1 | 328.37
284.2 K, Liquid | 317.32
298.15 K, Liquid | 326.14
300 K, Liquid | 327.33
320 K, Liquid | 340.79
340 K, Liquid | 354.76
360 K, Liquid | 369.3
380 K, Liquid | 384.16
400 K, Liquid | 399.24
420 K, Liquid | 414.4
440 K, Liquid | 429.57

[1], Liquid, Vacuum adiabatic calorimetry
Conditions | molar heat capacity [J/K/mol]
287.6 K | 319.48
289.37 K | 320.58
290.6 K | 321.35
296.18 K | 324.86
296.81 K | 325.28
307.92 K | 332.58
321.65 K | 341.93
336.79 K | 352.46
352.3 K | 363.66
367.76 K | 375.02
383 K | 386.42
398.09 K | 397.79
413.1 K | 409.16
428.06 K | 420.5
439.99 K | 429.5

Conditions | Molar enthalpy of transition or fusion [kJ/mol] | Triple point temperature [K] | vapor or sublimation pressure [kPa]
[2], 334.98 K | – | – | 0.0195
[2], 344.99 K | – | – | 0.0387
[2], 354.98 K | – | – | 0.073
[2], 364.98 K | – | – | 0.1323
[2], 374.98 K | – | – | 0.2307
[2], 384.97 K | – | – | 0.3883
[2], 394.98 K | – | – | 0.6338
[2], 404.98 K | – | – | 1.004
[2], 414.96 K | – | – | 1.546
[2], 419.97 K | – | – | 1.902
[2], 424.96 K | – | – | 2.324
[2], 429.96 K | – | – | 2.825
[2], Crystal 1 | – | 284.2 | –
[2], Crystal 2 | – | 264.7 | –
[2], Crystal 3 | – | 41.35 | –
[3], Crystal 1 | 5.682 | – | –
[3], Crystal 2 | 10.01 | – | –
